{
  "source": "patent US12208127B2",
  "about": "“Preparation and use of cannabis nano-formulation” (Apurano Pharmaceuticals GmbH, priority 2020, dated 2025)",
  "origin": "cited, not measured here",
  "key": {"[1]": {"details": "some pharmacological animal experiments"}, "[2]": {"details": "i.v. single dose 1 mg"}, "[3]": {"details": "higher formation after administration"}},
  "note": "Read-outs that look alike come from different tables or passages of the source.",
  "data": [
    {"compound": "CCCCCc1cc(O)c2c(c1)OC(C)(C)[C@@H]1CCC(CO)=C[C@@H]21", "note": "[Example 11-OH-THC, 11-OH-THC]", "values": [
      {"measurement": "psychotropic side effects relative to THC", "setting": "[1]", "result": "three to seven"},
      {"measurement": "time to tachycardia and psychological high", "setting": "[2]", "result": "3-5 minutes"}
    ]},
    {"compound": "CCCCCc1cc(O)c2c(c1)OC(C)(C)[C@@H]1CCC(C)=C[C@@H]21", "note": "[THC, tetrahydrocannabinol]", "values": [
      {"measurement": "average plasma clearance rate", "setting": "naïve THC users", "result": "approximately 36 L/h"},
      {"measurement": "average plasma clearance rate", "setting": "regular users", "result": "~60", "unit": "L/h"}
    ]},
    {"compound": "CCCCCc1cc(O)c2c(c1)OC(C)(C)[C@@H]1CCC(C)=C[C@@H]21", "note": "[dronabinol as capsule, dronabinol]", "values": [
      {"measurement": "formation of 11-OH-THC compared to THC", "setting": "[3]", "result": 3, "unit": "fold"}
    ]}
  ]
}
